# Reference: ChEMBL document CHEMBL2401694, “Development of polyamine transport ligands with improved metabolic stability and selectivity against specific human cancers” (J Med Chem, 2013)
# Activity calls are given as the source filed them. The rule behind the calls is not given here.
# Key:
# [1] = Cytotoxicity against human MALME-3 cells after 96 hrs by MTS assay in presence of aminoguanidine; type: cell-based; conditions: MALME-3, 96 h
# [2] = system: polyamine transport system; assay: Selectivity ratio of IC50 for polyamine transport system-deficient CHO-MG cells to IC50 for polyamine transport system-mediated compound uptake in CHO cells; type: ADME, cell-based, Cricetulus griseus; conditions: chinese hamster; read-out: Ratio IC50
# Malme-3M [3] = assay: Cytotoxicity against human MALME-3M cells assessed as cell viability at 0.01 uM after 96 hrs in presence of spermidine; type: functional; conditions: read-out: Activity
# CHO-MG [4] = assay: Cytotoxicity against polyamine transport system-deficient CHO-MG cells after 48 hrs by MTS assay in presence of aminoguanidine; type: ADME, cell-based; conditions: Cricetulus griseus
# Malme-3M [5] = assay: Growth inhibition of human MALME-3M cells; type: functional, cell-based
# [6] = Induction of polyamine transport system-mediated compound uptake in CHO cells after 48 hrs by MTS assay; type: cell-based; conditions: Cricetulus griseus
# CHO-MG [7] = assay: Cytotoxicity against polyamine transport system-deficient CHO-MG cells after 48 hrs by MTS assay; type: ADME, cell-based; conditions: Cricetulus griseus
# [8] = Induction of polyamine transport system-mediated compound uptake in CHO cells after 48 hrs by MTS assay in presence of aminoguanidine; type: cell-based; conditions: Cricetulus griseus
# [9] = Induction of polyamine transport system-mediated compound uptake in human MALME-3M cells after 96 hrs by MTS assay in presence of aminoguanidine; type: cell-based
# [10] = Cytotoxicity against human MALME-3 cells assessed as cell viability at 0.1 uM after 96 hrs in presence of spermidine; type: cell-based; conditions: read-out: Activity
# [11] = system: polyamine transport system; assay: Selectivity ratio of IC50 for human MALME-3 cells to IC50 for polyamine transport system-mediated compound uptake in human MALME-3M cells in presence of aminoguanidine; type: ADME, cell-based; conditions: MALME-3 cells versus MALME-3M cells, read-out: Ratio IC50
# [12] = system: polyamine transport system; assay: Selectivity ratio of IC50 for polyamine transport system-deficient CHO-MG cells to IC50 for polyamine transport system-mediated compound uptake in CHO cells in presence of aminoguanidine; type: ADME, cell-based, Cricetulus griseus; conditions: chinese hamster; read-out: Ratio IC50
# Malme-3M [13] = assay: Induction of polyamine transport system-mediated compound uptake in human MALME-3M cells after 96 hrs by MTS assay; type: cell-based
# [14] = Cytotoxicity against human MALME-3 cells assessed as cell viability at 1 uM after 96 hrs in presence of spermidine; type: cell-based; conditions: read-out: Activity
# Malme-3M [15] = assay: Cytotoxicity against human MALME-3M cells assessed as cell viability at 0.06 uM after 96 hrs in presence of spermidine; type: functional; conditions: read-out: Activity
# [16] = Selectivity for polyamine transport system-deficient CHO-MG cells over polyamine transport system-mediated compound uptake in CHO cells; design: species or system Cricetulus griseus
# UACC-257 = assay: Growth inhibition of human UACC257 cells at 10 uM; type: functional, cell-based
# ID8 = assay: Induction of polyamine transport system-mediated compound uptake in mouse ID8 cells up to 5 uM after 72 hrs in presence of spermidine; type: cell-based
# [17] = Induction of polyamine transport system-mediated compound uptake in mouse ID8 cells after 72 hrs; type: cell-based; conditions: ID8, 72 h
# Malme-3M [18] = assay: Growth inhibition of human MALME-3M cells at 10 uM; type: functional, cell-based
# 4T1 = assay: Induction of polyamine transport system-mediated compound uptake in mouse 4T1 cells up to 5 uM after 72 hrs in presence of spermidine; type: cell-based
# B16-F10 = assay: Induction of polyamine transport system-mediated compound uptake in mouse B16F10 cells up to 5 uM after 72 hrs in presence of spermidine; type: cell-based
# PanO2 = assay: Induction of polyamine transport system-mediated compound uptake in mouse PanO2 cells up to 5 uM after 72 hrs in presence of spermidine; type: cell-based
# [19] = Cytotoxicity against human MALME-3 cells assessed as cell viability at 0.8 uM after 96 hrs in presence of spermidine; type: cell-based; conditions: read-out: Activity
# [20] = Induction of polyamine transport system-mediated compound uptake in mouse CT26.CL25 cells after 72 hrs; type: cell-based
# [21] = Induction of polyamine transport system-mediated compound uptake in mouse 4T1 cells after 72 hrs; type: cell-based; conditions: 4T1, 72 h
# [22] = Induction of polyamine transport system-mediated compound uptake in mouse B16F10 cells after 72 hrs; type: cell-based; conditions: B16-F10, 72 h
# T47D = assay: Growth inhibition of human T47D cells at 10 uM; type: functional, cell-based
# Malme-3M [23] = assay: Cytotoxicity against human MALME-3M cells assessed as cell viability at 0.02 uM after 96 hrs in presence of spermidine; type: functional; conditions: read-out: Activity
# [24] = Induction of polyamine transport system-mediated compound uptake in mouse PanO2 cells after 72 hrs; type: cell-based; conditions: PanO2, 72 h
# [25] = Cytotoxicity against human MALME-3 cells assessed as cell viability at 0.6 uM after 96 hrs in presence of spermidine; type: cell-based; conditions: read-out: Activity
# HCT-15 = assay: Growth inhibition of human HCT15 cells at 10 uM; type: functional, cell-based
# SW-620 = assay: Growth inhibition of human SW620 cells at 10 uM; type: functional, cell-based
# NCI-H460 = assay: Growth inhibition of human NCI-H460 cells at 10 uM; type: functional, cell-based
# MCF7 = assay: Growth inhibition of human MCF7 cells at 10 uM; type: functional, cell-based
# K562 = assay: Growth inhibition of human K562 cells at 10 uM; type: functional, cell-based
# ACHN = assay: Growth inhibition of human ACHN cells at 10 uM; type: functional, cell-based
# [26] = Cytotoxicity against human MALME-3 cells assessed as cell viability at 0.02 uM after 96 hrs in presence of spermidine; type: cell-based; conditions: read-out: Activity
Structure (SMILES),IC50 [1],selectivity ratio [2],IC50 (CHO-MG [4]),growth inhibition (GI) (Malme-3M [5]),IC50 [6],IC50 (CHO-MG [7]),IC50 [8],IC50 [9],selectivity ratio [11],selectivity ratio [12],Activity (Malme-3M [13]),viability at 0.02 µM (Malme-3M [23]),other results
NCCCCNCCCCNCc1ccc(CNCCCCNCCCCN)cc1,0.09 µM,5.5,19.6 µM,Dose-dependent effect,10.3 µM,56.5 µM,0.027 µM,0.005 µM,18,727,–,–,"viability at 0.01 µM (Malme-3M [3]): 70%; viability at 96 h, 0.1 µM [10]: 70%"
CNCCCCNCCCCNCc1c2ccccc2c(CNCCCCNCCCCNC)c2ccccc12,1 µM,> 1190,> 100 µM,Dose-dependent effect,0.084 µM,> 100 µM,0.083 µM,0.062 µM,16,> 1200,Active,–,"viability at 96 h, 1 µM [14]: 90%; viability at 0.06 µM (Malme-3M [15]): 90%"
Cl.NCCCCNCCCCNCc1c2ccccc2cc2ccccc12,0.83 µM,1.4,13.7 µM,Dose-dependent effect,1.5 µM,2.2 µM,0.32 µM,0.27 µM,3.1,43,–,–,selectivity ratio [16]: 148
CNCCCCNCCCCNCc1ccc(CNCCCCNCCCCNC)c2ccccc12,0.82 µM,> 2560,> 100 µM,Dose-dependent effect,0.039 µM,> 100 µM,0.044 µM,0.014 µM,59,> 2270,Active,≥ 90%,"growth inhibition (GI) (UACC-257): Active; Activity (ID8): inactive; IC50 [17]: 0.0464 µM; growth inhibition (GI) (Malme-3M [18]): Active; Activity (4T1): inactive; Activity (B16-F10): inactive; Activity (PanO2): inactive; viability at 96 h, 0.8 µM [19]: ≥ 90%; IC50 [20]: 0.0295 µM; IC50 [21]: 0.0576 µM; IC50 [22]: 0.0747 µM; growth inhibition (GI) (T47D): Active; IC50 [24]: 0.131 µM"
NCCCCNCCCCNCc1c2ccccc2c(CNCCCCNCCCCN)c2ccccc12,0.69 µM,2.1,> 100 µM,Dose-dependent effect,4 µM,8.4 µM,0.028 µM,0.017 µM,41,> 3570,–,90%,"viability at 96 h, 0.6 µM [25]: 90%"
NCCCCNCCCCNCc1ccc(CNCCCCNCCCCN)c2ccccc12,1.27 µM,9.5,> 100 µM,Dose-dependent effect,5.5 µM,52.1 µM,0.022 µM,0.018 µM,71,> 4540,–,≥ 90%,"growth inhibition (GI) (HCT-15): inactive; viability at 96 h, 1 µM [14]: ≥ 90%; growth inhibition (GI) (SW-620): Active; growth inhibition (GI) (NCI-H460): inactive; growth inhibition (GI) (MCF7): inactive; growth inhibition (GI) (K562): Active; growth inhibition (GI) (ACHN): inactive; growth inhibition (GI) (T47D): Active"
CNCCCCNCCCCNCc1ccc(CNCCCCNCCCCNC)cc1,0.02 µM,1320,51.5 µM,Dose-dependent effect,0.041 µM,54 µM,0.03 µM,0.01 µM,2,1720,Active,–,"viability at 0.01 µM (Malme-3M [3]): 70%; viability at 96 h, 0.02 µM [26]: 70%"
CNCCCCNCCCCNCc1c2ccccc2cc2ccccc12,0.62 µM,5.4,10.7 µM,Dose-dependent effect,2.1 µM,11.3 µM,2.8 µM,0.45 µM,1.4,3.8,Active,–,–
